From patent US8906906B2, “Viral replication inhibitors” (Katholieke Universiteit Leuven, priority 2009, dated 2014)

Key:
[1] = target: T1, His6-tagged HIV-1 integrase / flag-LEDGF/p75 interaction (Human immunodeficiency virus type 1 group M subtype B, UniProt P04585); assay: AlphaScreen assay of LEDGF-integrase interaction inhibition; type: binding; conditions: compounds tested from 0.1 up to 100 μM
T1 construct: His6-tagged HIV-1 integrase; made in house
Protocol: Alphascreen Assay to Measure the LEDGF-Integrase Interaction Inhibitory Activity of Compounds of the Invention
The AlphaScreen assay was performed according to the manufacturer's protocol (Perkin Elmer, Benelux). Reactions were performed in 25 μl final volume in 384-well Optiwell™ microtiter plates (Perkin Elmer). The reaction buffer contained 25 mM Tris-HCl (pH 7.4), 150 mM NaCl, 1 mM MgCl2, 0.01% (v/v) Tween-20 and 0.1% (w/v) bovine serum albumin. His6-tagged integrase (300 nM final concentration) was incubated with the compounds for 30 min at 4° C. The compounds were added at varying concentrations spanning a wide range from 0.1 up to 100 μM. Afterwards 100 nM flag-LEDGF/p75 was added and incubation was prolonged for an additional hour at 4° C. Subsequently 5 μl of Ni-chelate-coated acceptor beads and 5 μl anti-flag donor beads were added to a final concentration of 20 μg/ml of both beads. Proteins and beads were incubated for 1 h at 30° C. in order to allow association to occur. Exposure of the reaction to direct light was omitted as much as possible and the emission of light from the acceptor beads was measured in the EnVision plate reader (Perkin Elmer, Benelux) and analyzed using the EnVision manager software. IN/DNA binding was analyzed in a similar setting using His6-tagged integrase (1 μM final concentration) and an oligodeoxynucleotide mimicking the IN ELISA oligonucleotide substrate (30 nM final concentration). Counterscreens with JPO2 or PogZ, respectively, were essentially performed as described previously.
Expression and purification of recombinant proteins: His6-tagged HIV-1 integrase, 3×flag-tagged LEDGF/p75, MBP-JPO2 and MBP-PogZ were purified for AlphaScreen applications as described previously 23,25,56.

HIV (MT4-IIIB) = assay: Anti-HIV activity: inhibition of HIV-induced cytopathogenic effect in MT-4 cells (MTT); type: cell-based; conditions: Human immunodeficiency virus 1, IIIB
[2] = Cytotoxicity in mock-infected MT-4 cells (MTT); type: cell-based; conditions: human, read-out: CC50 in MT4-IIIB (μm)
Protocol: A rapid and automated assay procedure was used for the in vitro evaluation of anti-HIV agents. An HTLV-1 transformed T4-cell line MT-4, which was previously shown to be highly susceptible to and permissive for HIV infection, served as the target cell line. Inhibition of the HIV-induced cytopathogenic effect was used as the end point. The viability of both HIV-and mock-infected cells was assessed spectrophotometrically via in situ reduction of 3-(4,5-dimethylthiazol-2-yl)-2,5-diphenyltetrazolium bromide (MTT). The 50% cytotoxic concentration (CC50 in μg/ml) was defined as the concentration of compound that reduced the absorbance of the mock-infected control sample by 50%. The percent protection achieved by the compound in HIV-infected cells was calculated by the following formula: […]
Examples of inhibition of cell proliferation by particular compounds of formula (I) can be found by looking at the respective CC50 values in the MT-4 cell line.
Cells: MT-4 cells (Miyoshi et al., 1982) were grown and maintained in RPMI 1640 medium supplemented with 10% heat-inactivated fetal calf serum, 2 mM I-glutamine, 0.1% sodium bicarbonate, and 20 æg of gentamicin per ml.

Structure (SMILES)	IC50 [1] [µM]	EC50 (HIV (MT4-IIIB)) [µM]	CC50 [2] [µM]
CCCC(C(=O)O)c1c(C)nc(N2CCCCC2)nc1-c1ccc(Cl)cc1F (stereo not drawn) [cpd 146]	10.8	9.38	72
CCCC(C(=O)O)c1c(C)nc(N2CCCC(C)C2)nc1-c1ccc(C)cc1 (stereo not drawn) [cpd 40]	25.1	24.6	120
CCCC(C(=O)O)c1c(C)nc(-c2ccccc2)nc1-c1ccc(Cl)cc1O (stereo not drawn) [cpd 111]	1.97	26.4	97
Cc1ccc(-c2nc(N3CCCCC3)nc(C)c2C(CC(C)(C)C)C(=O)O)cc1 (stereo not drawn) [cpd 152]	6.9	3.48	72
CCCC(C(=O)O)c1c(C)nc(-c2ccccc2)nc1-c1ccc(C)cc1 (stereo not drawn) [cpd 14]	22.1	23.4	120
CCCC(C(=O)O)c1c(C)nc(-c2ccccc2)nc1N1CCCCC1 (stereo not drawn) [cpd 60]	4.71	13.2	61
CCCC(C(=O)O)c1c(C)nc(N2CCCN(CC)CC2)nc1-c1ccc(C)cc1 (stereo not drawn) [cpd 56]	73.8	101	> 250
CCCC(C(=O)O)c1c(C)nc(N2CCCCC2)nc1-c1ccccc1 (stereo not drawn) [cpd 20]	12.5	15.9	120
CCCC(C(=O)O)c1c(C)nc(-c2ccccc2)nc1N1CCCCCC1 (stereo not drawn) [cpd 62]	6.71	29.8	131
CCCC(C(=O)O)c1c(C)nc(N2CCCCC2)nc1-c1ccc(C)cc1Cl (stereo not drawn) [cpd 144]	5.92	7.93	72.5
CCCC(C(=O)O)c1c(C)nc(N2CCCCC2)nc1-c1ccc(C)cc1 (stereo not drawn) [cpd 22]	4.74	9.16	100
CCCC(C(=O)O)c1c(C)nc(-c2ccccc2)nc1-c1ccc(Cl)cc1F (stereo not drawn) [cpd 94]	7.25	19	81
CCCC(C(=O)O)c1c(C)nc(-c2ccccc2)nc1-c1ccc(C)cc1F (stereo not drawn) [cpd 98]	13.5	35.9	113
CCCC(C(=O)O)c1c(C)nc(N2CCCCC2)nc1N1CCCCC1 (stereo not drawn) [cpd 148]	34.1	18.1	138
CCCC(C(=O)O)c1c(C)nc(N2CCCC2)nc1-c1ccc(C)cc1 (stereo not drawn) [cpd 30]	4.61	16.1	143
CCCC(C(=O)O)c1c(C)nc(N2CCCCC2)nc1-c1ccc(F)cc1F (stereo not drawn) [cpd 130]	17.4	22.7	99
